{
  "source": "patent US20170137481A1",
  "about": "“Use of Cell-Permeable Peptide Inhibitors of the JNK Signal Transduction Pathway for the Treatment of Various Diseases” (Xigen Inflammation Ltd., priority 2014, published 2017)",
  "key": {"TC-3 cells": {"tested_on": "TC-3 cells", "assay": "IL-1 induced pancreatic beta-cell death with peptides", "type": "cell-based", "settings": "1 μM single addition", "description": "Inhibition of IL-1 induced pancreatic beta-cell death by the D-TAT-IB1(s) peptide was analyzed. TC-3 cells were incubated as described above for 30 minutes with one single addition of the indicated peptides (1 μM), then IL-1 (10 ng/ml) was added.\nApoptotic cells were then counted after two days of incubation with IL-1 by use of Propidium Iodide and Hoechst 33342 nuclear staining. A minimum of 1,000 cells were counted for each experiment. Standard Error of the Means (SEM) are indicated, n=5.\nLong term inhibition of IL-1 P induced cell-death by the D-TAT-IB1 peptide was also analyzed. TC-3 cells were incubated as above for 30 minutes with one single addition of the indicated peptides (1 μM), then IL-1 (10 ng/ml) was added, followed by addition of the cytokine every two days. Apoptotic cells were then counted after 15 days of incubation with IL-1 by use of propidium iodide and Hoechst 33342 nuclear staining. […] A minimum of 1.000 cells were counted for each experiment."}, "JNK": {"tested_on": "JNK", "settings": "JBDs; cited from earlier work"}, "TC-3 cell cultures": {"tested_on": "TC-3 cell cultures", "assay": "Cellular import of fluorescein labeled TAT and TAT-IB1(s) peptides", "type": "cell-based", "settings": "1 μM", "description": "The ability of the L- and D-enantiomeric forms of TAT and TAT-IB1(s) peptides (“TAT-IB peptides”) to enter cells was evaluated. L-TAT, D-TAT, L-TAT-IB1(s), and D-TAT-IB1(s) peptides [SEQ ID NOs: 5, 6, 9 and 12, respectively] were labeled by N-terminal addition of a glycine residue conjugated to fluorescein. Labeled peptides (1 μM) were added to TC-3 cell cultures, which were maintained as described in Example 3. At predetermined times cells were washed with PBS and fixed for five minutes in ice-cold methanol-acetone (1:1) before being examined under a fluorescence microscope. Fluorescein-labeled BSA (1 μM, 12 moles/mole BSA) was used as a control."}, "[1]": {"tested_on": "AP-1 DNA binding complex in HeLa cell nuclear extracts", "assay": "AP-1 gel retardation assay", "type": "cell-based", "settings": "TNF-alpha 5 ng/ml"}, "[2]": {"tested_on": "recombinant JNK1, JNK2 and JNK3", "assay": "Solid phase kinase assay, phosphorylation of c-Jun, ATF2 and Elk1", "type": "biochemical", "settings": "dose response 0-25 μM", "description": "(§1) The effects of the peptides on JNKs-mediated phosphorylation of their target transcription factors were investigated in vitro. Recombinant and non activated JNK1, JNK2 and JNK3 were produced using a TRANSCRIPTION AND TRANSLATION rabbit reticulocyte lysate kit (Promega) and used in solid phase kinase assays with c-jun, ATF2 and Elk1, either alone or fused to glutathione-S-transferase (GST), as substrates. Dose response studies were performed wherein L-TAT or L-TAT-IB1 (s) peptides (0-25 μM) were mixed with the recombinant JNK1, JNK2, or JNK3 kinases in reaction buffer (20 mM Tris-acetate, 1 mM EGTA, 10 mM p-nitrophenyl-phosphate (pNPP), 5 mM sodium pyrophosphate, 10 mM p-glycerophosphate, 1 mM dithiothreitol) for 20 minutes. The kinase reactions were then initiated by the addition of 10 mM MgCl2 and […] ^33P-gamma-dATP and 1 μg of either GST-Jun (aa 1-89), GST-AFT2 (aa 1-96) or GST-ELK1 (aa 307-428). GST-fusion proteins were purchased from Stratagene (La Jolla, Calif.).\n(§2) Ten μL of glutathione-agarose beads were also added to the mixture. Reaction products were then separated by SDS-PAGE on a denaturing 10% polyacrylamide gel. […] The ability of D-TAT, D-TAT-IB1(s) and L-TAT-IB1(s) peptides (0-250 μM dosage study) to inhibit GST-Jun (aa 1-73) phosphorylation by recombinant JNK1, JNK2, and JNK3 by were analyzed as described above. […]"}, "JNK3": {"target": "T1, JNK3 (Homo sapiens, UniProt P53779)", "T1 construct": "host or cells: cell-free: rabbit reticulocyte lysate transcription/translation", "T1 sequence (P53779 whole entry, species assumed)": "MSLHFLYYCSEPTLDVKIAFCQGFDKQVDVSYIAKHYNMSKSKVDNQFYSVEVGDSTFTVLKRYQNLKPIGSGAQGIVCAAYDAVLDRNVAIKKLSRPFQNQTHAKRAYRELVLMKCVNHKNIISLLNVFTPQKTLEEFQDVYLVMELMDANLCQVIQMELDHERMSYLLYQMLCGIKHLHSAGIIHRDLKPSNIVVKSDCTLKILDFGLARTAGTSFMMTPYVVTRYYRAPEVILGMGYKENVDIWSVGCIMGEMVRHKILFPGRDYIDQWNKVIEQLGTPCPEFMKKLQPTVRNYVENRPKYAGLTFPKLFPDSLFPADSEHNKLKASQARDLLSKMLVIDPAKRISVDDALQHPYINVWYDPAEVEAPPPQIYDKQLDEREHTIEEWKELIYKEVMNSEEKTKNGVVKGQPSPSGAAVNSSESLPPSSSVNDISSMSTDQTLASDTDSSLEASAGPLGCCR", "assay": "Solid phase kinase assay, JNK3 phosphorylation of Elk1", "type": "biochemical", "settings": "0-25 μM", "description": "as §1, §2"}, "[3]": {"tested_on": "JNKs from UV-light irradiated HeLa cells or IL-1 treated TC-3 cells", "assay": "c-Jun phosphorylation by activated JNKs pulled down with GST-Jun", "type": "biochemical", "settings": "25 μM", "description": "The effects of the L-TAT or L-TAT-IB1(s) peptides as defined herein on JNKs activated by stressful stimuli were evaluated using GST-Jun to pull down JNKs from UV-light irradiated HeLa cells or IL-1 treated PTC cells. PTC cells were cultured as described above. HeLa cells were cultured in DMEM medium supplemented with 10% Fetal Calf Serum, 100 μg/mL Streptomycin, 100 units/ml Penicillin and 2 mM Glutamine. One hour prior to being used for cell extract preparation, PTC cells were activated with IL-1 as described above, whereas HeLa cells were activated by UV-light (20 J/m^2). Cell extracts were prepared from control, UV-light irradiated HeLa cells and IL-1 treated TC-3 cells by scraping the cell cultures in lysis buffer (20 mM Tris-acetate, 1 mM EGTA, 1% Triton X-100, 10 mM p-nitrophenyl-phosphate, 5 mM sodium pyrophosphate, 10 mMP-glycerophosphate, 1 mM dithiothreitol). Debris was removed by centrifugation for five minutes at 15,000 rpm in an SS-34 Beckman rotor. One-hundred μg extracts were incubated for one hour at room temperature with one μg GST-jun (amino acids 1-89) and 10 μL of glutathione-agarose beads (Sigma). Following four washes with the scraping buffer, the beads were resuspended in the same buffer supplemented with L-TAT or L-TAT-IB1(s) peptides (25 μM) for 20 minutes. […]"}, "[4]": {"tested_on": "JNK mediated activation of c-Jun in HeLa cells", "assay": "GAL4-Jun luciferase reporter after MKK4/MKK7 co-transfection", "type": "cell-based", "settings": "1 μM", "from_the_text": "To determine whether the cell-permeable peptides as defined herein could block JNK signaling in vivo, we used a heterologous GAL4 system. HeLa cells, cultured as described above, were co-transfected with the 5×GAL-LUC reporter vector together with the GAL-Jun expression construct (Stratagene) comprising the activation domain of c-Jun (amino acids 1-89) linked to the GAL4 DNA-binding domain. Activation of JNK was achieved by the co-transfection of vectors expressing the directly upstream kinases MKK4 and MKK7 (see Whitmarsh et al., Science 285: 1573 (1999)). Briefly, 3×10^5 cells were transfected with the plasmids in 3.5-cm dishes using DOTAP (Boehringer Mannheim) following instructions from the manufacturer. For experiments involving GAL-Jun, 20 ng of the plasmid was transfected with 1 μg of the reporter plasmid pFR-Luc (Stratagene) and 0.5 μg of either MKK4 or MKK7 expressing plasmids. Three hours following transfection, cell media were changed and TAT and TAT-IB1(s) peptides (1 μM) were added. The luciferase activities were measured 16 hours later using the “Dual Reporter System” from Promega after normalization to protein content. […] Because HeLa cells express JNK1 and JNK2 isoforms but not JNK3, we transfected cells with JNK3."}, "[5]": {"tested_on": "acute CYP-induced cystitis in female Sprague-Dawley rats", "assay": "CYP-induced acute cystitis, intravesical treatment", "type": "in vivo, rat", "settings": "50 mg/mL i.ves.; 24 h post-CYP", "description": "(§3) This preclinical model is well-used to test therapeutic approaches for the treatment of interstitial cystitis/painful bladder syndrome (IC/PBS).\n(§4) Animals were acclimatized to the laboratory conditions for at least 3 days before the start of any experiments. The animals were allocated to the following four experimental groups (n=10 animals per group):\nTo induce acute cystitis, a single i.p. injection of CYP at a dose of 150 mg/kg in a final volume of 5 mL/kg was performed. Control rats received physiological saline under the same experimental conditions as CYP (final volume of 5 mL/kg, i.p.).\n(§5) On the day of each experiment, weight of rats was recorded.\n(§6) Standardized conditions including fixed time-of-day (a.m. to minimize the potential circadian variations in the behaviours responses) and single-experimenter testing of all animals were applied to minimize variability behavior-based pain testing. Visceral pain including allodynia and hyperalgesia was evaluated by applying to the lower abdomen, close to the urinary bladder, a set of 8 calibrated von Frey filaments of increasing forces (1, 2, 4, 6, 8, 10, 26 and 60 g) with an interstimulus interval of 5 seconds. Prior testing, the abdominal area designed for mechanical stimulation of each animal was shaved. Animals were then placed on a raised wire mesh floor under individual transparent Plexiglas box and acclimatized for at least 30 minutes before starting the von Frey test. Filaments were then applied 1-2 seconds through the mesh floor with enough strength to cause the filament to slightly bend. Each filament was tested 3 times. Care was taken to stimulate different areas within the lower abdominal region in the vicinity of the urinary bladder to avoid desensitization.\nUrinary bladders were rapidly collected and cleaned from lipoid tissue. […] Finally, wall thickness was measured using a digital caliper by placing the bladder wall between the two outside jaws."}, "[6]": {"tested_on": "acute CYP-induced cystitis in female Sprague-Dawley rats", "assay": "CYP-induced acute cystitis, intravenous treatment, visceral pain", "type": "in vivo, rat", "settings": "XG-102 2 mg/kg i.v., ibuprofen 10 mg/kg i.v.; 24 h post-CYP", "description": "as §3, §4\nControl rats received physiological saline under the same experimental conditions as CYP (final volume of 5 mL/kg, i.p.).\nas §5\nas §6, with “Filaments were then applied 1-2 seconds through the mesh floor with enough strength to cause the filament to slightly bend. Each filament was tested 3 times. Care was taken to stimulate different areas within the lower abdominal region in the vicinity of the urinary bladder to avoid desensitization.” left out"}},
  "note": "Non-standard residues stand in square brackets, D forms with d. No end group written: not given here.",
  "data": [
    {"compound": "TDQSRPVQPFLNLTTPRKPRYTDPPRRRQRRKKRG ([dT][dD][dQ][dS][dR][dP][dV][dQ][dP][dF][dL][dN][dL][dT][dT][dP][dR][dK][dP][dR][dY][dT][dD][dP][dP][dR][dR][dR][dQ][dR][dR][dK][dK][dR]G) [D-TAT-IB1]", "values": [
      {"measurement": "IL-1 induced apoptosis", "setting": "TC-3 cells; two days IL-1", "result": "decreased IL-1 induced apoptosis to a similar extent as L-TAT-IB peptides"}
    ]},
    {"compound": "IPSPSVEEPHKHRPTTLRLTTLGAQDS (Description of sequence Peptide IB2-long (see Table 1))", "values": [
      {"measurement": "efficiency in binding JNK versus c-Jun or ATF2", "setting": "JNK", "result": "approximately 100 fold"}
    ]},
    {"compound": "PGTGCGDTYRPKRPTTLNLFPQVPRSQDT (Description of sequence peptide IB1-long (see Table 1))", "values": [
      {"measurement": "efficiency in binding JNK versus c-Jun or ATF2", "setting": "JNK", "result": "approximately 100 fold"}
    ]},
    {"compound": "GRKKRRQRRRPPRPKRPTTLNLFPQVPRSQD (Description of sequence L-TAT-IB1 (s) (see Table 1)) [L-TAT-IB1(s)]", "values": [
      {"measurement": "entry into cells", "setting": "TC-3 cell cultures", "result": "efficiently and rapidly (less than five minutes) entered cells"},
      {"measurement": "long term protection from IL-1 induced cell death", "setting": "TC-3 cells; 15 days IL-1", "result": "not"},
      {"measurement": "formation of the AP-1 DNA binding complex", "setting": "[1]", "result": "decrease the formation of the AP-1 DNA binding complex in the presence of TNF-alpha"}
    ]},
    {"compound": "TAT-IB(s): TAT-IB1(s) peptide of Examples 5 to 7, there the L-TAT-IB1(s) peptide (GRKKRRQRRRPPRPKRPTTLNLFPQVPRSQD)", "values": [
      {"measurement": "peptide dose with nearly complete inhibition of c-Jun, ATF2 and Elk1 phosphorylation by JNKs", "setting": "[2]", "result": 2.5, "unit": "µM"},
      {"measurement": "inhibition of JNK3 phosphorylation of Elk1", "setting": "JNK3", "result": "absence of TAT-IB(s) inhibition of JNK3 phosphorylation of Elk1"},
      {"measurement": "phosphorylation of c-Jun by activated JNKs", "setting": "[3]", "result": "efficiently prevented phosphorylation of c-Jun by activated JNKs"},
      {"measurement": "activation of c-Jun in cells transfected with JNK3", "setting": "[4]", "result": "inhibited JNK2 mediated activation of c-Jun"},
      {"measurement": "activation of c-Jun following MKK4 and MKK7 mediated activation of JNK", "setting": "[4]; luciferase 16 hours later", "result": "blocked activation of c-Jun following MKK4 and MKK7 mediated activation of JNK"}
    ]},
    {"compound": "CC(C)Cc1ccc(C(C)C(=O)O)cc1", "note": "(stereo not shown) [ibuprofen]", "values": [
      {"measurement": "haemorrhage scores", "setting": "[5]", "result": "no significant change was observed regarding haemorrhage scores"},
      {"measurement": "nociceptive scores versus vehicle", "setting": "[5]", "result": "significant decrease of nociceptive scores"},
      {"measurement": "nociceptive threshold versus vehicle", "setting": "[5]", "result": "significantly increased"},
      {"measurement": "urinary bladder wall thickness", "setting": "[5]", "result": "a significant decrease was observed in urinary bladder wall thickness"},
      {"measurement": "nociceptive scores versus vehicle", "setting": "[6]", "result": "significantly decrease nociceptive scores"},
      {"measurement": "nociceptive threshold versus vehicle", "setting": "[6]", "result": "significantly increased"}
    ]},
    {"compound": "RRRQRRKKRG (D-amino acids; Description of sequence Peptide D-TAT (see Table 1))", "values": [
      {"measurement": "entry into cells", "setting": "TC-3 cell cultures", "result": "efficiently and rapidly (less than five minutes) entered cells"}
    ]},
    {"compound": "GRKKRRQRRR (Description of sequence Peptide L-TAT (see Table 1))", "values": [
      {"measurement": "entry into cells", "setting": "TC-3 cell cultures", "result": "efficiently and rapidly (less than five minutes) entered cells"}
    ]}
  ]
}
